According to US20040259925A1, “Pharmaceutical compositions and methds for the prevention or treatment of cardiovascular, cardiopulmonary, pulmonary or renal diseases” (Boehringer Ingelheim Pharma GmbH & Co. KG, priority 2003, published 2004):

Tests used:
[1] = Dissolution of active substances from Tablet 3; type: physicochemical
Excerpt: This combination of active substances and excipients was then compressed with a suitable tablet press (e.g. Korsch EK0 or Fette P1200) to form tablets.

[2] = target: T1, ligand binding domain of the human PPARgamma2 transcription factor fused to yeast GAL4 DNA binding domain (Homo sapiens, UniProt P37231); test: Luciferase activity in stably transformed PPARgamma reporter cell line (CHO-K1 clone 11); type: cell-based; details: for MW (luciferase activity): 24 hours
T1 construct: codes for amino acids 205-505 of the human PPARgamma2 transcription factor; expressed in transfected cells
T1 sequence (P37231 205-505): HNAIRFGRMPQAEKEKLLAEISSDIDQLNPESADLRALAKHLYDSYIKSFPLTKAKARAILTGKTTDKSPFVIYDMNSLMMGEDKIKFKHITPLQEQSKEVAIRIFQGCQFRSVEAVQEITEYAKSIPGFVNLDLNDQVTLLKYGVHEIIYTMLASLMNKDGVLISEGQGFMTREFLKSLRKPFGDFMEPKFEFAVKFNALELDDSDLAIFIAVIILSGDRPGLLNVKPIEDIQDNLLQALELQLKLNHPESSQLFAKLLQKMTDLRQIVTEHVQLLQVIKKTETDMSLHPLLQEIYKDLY
Excerpt: The cells used are CHO cells which are the result of transformation with two gene constructs.
The resulting plasmid pFA-CMV/hPPARgamma2-LBD codes N-terminally of the PPARgamma-LBD in the same reading frame for a Gal4 DNA binding domain. In addition the plasmid codes for neomycin resistance.
The cell line CHO-K1 (ATCC CCL-61) was cotransfected with the plasmids pFA-CMV/hPPARgamma2-LBD and pFR-Luc (Stratagene). pFR-Luc codes for the luciferase gene under the control of a five-times repeated yeast Gal4 binding site. The transfection was carried out with lipofectamine2000 in accordance with the manufacturer's instructions.
After six days' cultivation the cells were passaged and kept in culture for another 10 days. The resulting neomycin-resistant colonies were picked out under the microscope and transferred into 96 well dishes and cultured.
The test substances were brought to 100 times the desired concentration with a suitable solvent, e.g. DMSO, and diluted 1:100 with the medium placed in the cell culture plate. The solvent used, e.g. DMSO, was used as the background control in the same concentration.
Luminescence was measured after a five minute wait using a Packard TopCount NXT. The luciferase activity was obtained by integrating the relative luciferase units (RLU) of the first ten seconds after the start of measurement.

[3] = target: T2, human PPARgamma-ligand binding domain (LBD) (Homo sapiens, UniProt P37231); test: SPA assay: displacement of 3H-labelled rosiglitazone from GST-PPARgamma-LBD; details: for MW (SPA signal, bound 3H-rosiglitazone): 30 nM 3H-rosiglitazone, NSB 217, Bmax 911; for displacement of the radioactive rosiglitazone from the binding pocket: very large excesses of test substance
T2 sequence (P37231 205-505): T1 sequence (P37231 205-505)
T2 sequence (P19793 220-461 partner): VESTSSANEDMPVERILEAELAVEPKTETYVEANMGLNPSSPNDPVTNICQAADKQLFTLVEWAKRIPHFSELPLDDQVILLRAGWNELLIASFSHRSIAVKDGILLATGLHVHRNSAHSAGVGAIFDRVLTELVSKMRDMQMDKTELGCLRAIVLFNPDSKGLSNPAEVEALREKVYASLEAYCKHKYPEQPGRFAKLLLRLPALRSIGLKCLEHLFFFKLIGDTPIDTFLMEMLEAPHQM
Protocol: Protein containing the human PPARgamma-ligand binding domain (LBD) was prepared as a GST fusion protein in E. coli and purified by affinity chromatography. To do this, a DNA section which codes for the amino acids 205-505 of the human PPARgamma2 transcription factor (cf. Genbank entry U79012) was subcloned via the additionally inserted restriction cutting sites BamH I and Xho I into the expression vector pGEX-4T-1 (Amersham) and the sequence of the section was monitored. […] The bacteria were pelleted after the induction and frozen in batches in PBS, pH 7.4. After opening up in a French Press, the dissolved GST-PPARgamma-LBD-fusion protein was purified using a GSTrap column (Pharmacia). Elution was carried out by the addition of 20 mM reduced glutathione. The GST-PPARgamma-LBD-protein fractions were desalinated using a HiTrap desalting column (Pharmacia) and the protein concentration was determined using a standard assay. Protein containing the human RXRalpha ligand binding domain (LBD) was prepared as a His tag fusion protein in E. coli and purified by affinity chromatography. To do this a DNA section which codes for the amino acids 220-461 of the human RXRalpha transcription factor (cf. Genbank entry NM_002957, nt 729-1457) was subcloned via the additionally introduced restriction cutting sites BamH I and Not I into the expression vector pET28c (Novagen) and the sequence of the section was monitored. […] The bacteria were pelleted after the expression and frozen in batches in PBS, pH 7.4. After opening up in a French Press, the dissolved His-RXRalpha-LBD-fusion protein is purified using a HiTrap chelating column (Pharmacia). Elution was carried out using a 500 mM imidazole step. The His-RXRalpha-LBD protein fractions were desalinated using a HiTrap desalting column (Pharmacia) and the protein concentration was determined using a standard assay. A description of the SPA assay format can be found in Mukherjee R et al., J Steroid Biochem Mol Biol (2002) 81:217-225. The assay buffer consisted of 20 mM Tris pH 7.5, 25 mM KCl, 10 mM DTT, 0.2% Triton X-100).

[4] = target: T3, human PPARgamma-ligand binding domain (LBD) (Homo sapiens, UniProt P37231); test: AlphaScreen: recruiting of biotinylated LXXLL peptide of cofactor CBP by GST-PPARgamma-LBD; type: biochemical; details: for direct activation of the PPARgamma-LBD / recruiting of the LXXLL peptide: concentrations of up to 50 μM; for MW (AlphaScreen signal): 4 hours
T3 construct: codes for the amino acids 205-505 of the human PPARgamma2 transcription factor; made in house; host or cells: E. coli BL21(DE3), vector pGEX-4T-1
T3 sequence (P37231 205-505): T1 sequence (P37231 205-505)
Protocol: Protein containing the human PPARgamma-ligand binding domain (LBD) was prepared as a GST fusion protein in E. coli and purified by affinity chromatography. […] The fusion protein was expressed in the E. coli strain BL21(DE3) recommended for pGEX vectors after induction with 0.2 mM IPTG for 4 hours at 25° C. The bacteria were pelleted after the induction and frozen in batches in PBS, pH 7.4. After opening up in a French Press, the dissolved GST-PPARgamma-LBD-fusion protein was purified using a GSTrap column (Pharmacia). Elution was carried out by the addition of 20 mM reduced glutathione. The GST-PPARgamma-LBD-protein fractions were desalinated using a HiTrap desalting column (Pharmacia) and the protein concentration was determined using a standard assay.
The assay buffer consisted of 25mM Hepes pH7.4, 100 mM NaCl, 1 mM DTT, 0.1% Tween-20, 0.1% BSA. […] The final DMSO concentration in the assay was 1% (v/v). A 1% DMSO solution was used as the background control (NSB). The measurement was done using a Packard fusion measuring device.

SMILES	activation of the PPARgamma pathway in the PPARgamma reporter cell line [2]	MW (luciferase activity) ([2]; test substance 1.00E−04 M) [RLU]	MW (luciferase activity) ([2]; test substance 1.00E−05 M) [RLU]	MW (luciferase activity) ([2]; test substance 1.00E−06 M) [RLU]	MW (luciferase activity) ([2]; test substance 3.00E−05 M) [RLU]	MW (luciferase activity) ([2]; test substance 3.00E−06 M) [RLU]	MW (luciferase activity) ([2]; test substance 3.00E−07 M) [RLU]	MW (SPA signal, bound 3H-rosiglitazone) ([3]; test substance 1.00E−04 M)	MW (SPA signal, bound 3H-rosiglitazone) ([3]; test substance 1.00E−05 M)	MW (SPA signal, bound 3H-rosiglitazone) ([3]; test substance 1.00E−06 M)	MW (SPA signal, bound 3H-rosiglitazone) ([3]; test substance 1.00E−07 M)	MW (SPA signal, bound 3H-rosiglitazone) ([3]; test substance 3.00E−05 M)	MW (SPA signal, bound 3H-rosiglitazone) ([3]; test substance 3.00E−06 M)	MW (SPA signal, bound 3H-rosiglitazone) ([3]; test substance 3.00E−07 M)	displacement of the radioactive rosiglitazone from the binding pocket [3]	direct activation of the PPARgamma-LBD / recruiting of the LXXLL peptide [4]	also measured
NS(=O)(=O)c1cc2c(cc1Cl)NCNS2(=O)=O [hydrochlorothiazide]																	dissolved after 30 minutes ([1]; Tablet 3, first batch, 900 ml 0.1 M HCl, 100 rpm): 69±6.3%; dissolved after 30 minutes ([1]; Tablet 3, second batch, 900 ml 0.1 M HCl, 100 rpm): 72±2.1%; dissolved after 30 minutes ([1]; Tablet 3, third batch, 900 ml 0.1 M HCl, 100 rpm): 78±1.8%
CCCCC1=NC2(CCCC2)C(=O)N1Cc1ccc(-c2ccccc2-c2nnn[nH]2)cc1 [irbesartan]	only at higher test concentrations and to a lesser extent	29600	3292	657	22133	1028	491	510	723	815	913	648	779	810	no concentration-dependent displacement	did not result in any direct activation of the PPARgamma-LBD	
CCCCc1nc(Cl)c(CO)n1Cc1ccc(-c2ccccc2-c2nn[nH]n2)cc1 [losartan]	only at higher test concentrations and to a lesser extent	11322	709	589	3271	672	874	611	787	901	915	784	814	835	no concentration-dependent displacement	did not result in any direct activation of the PPARgamma-LBD	
CCCc1nc2c(C)cc(-c3nc4ccccc4n3C)cc2n1Cc1ccc(-c2ccccc2C(=O)[O-])cc1.[Na+] [telmisartan sodium salt]																	dissolved after 30 minutes ([1]; Tablet 3, first batch, 900 ml 0.1 M phosphate buffer pH 7.5, 75 rpm): 92±1.5%; dissolved after 30 minutes ([1]; Tablet 3, second batch, 900 ml 0.1 M phosphate buffer pH 7.5, 75 rpm): 96±1.8%; dissolved after 30 minutes ([1]; Tablet 3, third batch, 900 ml 0.1 M phosphate buffer pH 7.5, 75 rpm): 100±1.0%
CCCc1nc2c(C)cc(-c3nc4ccccc4n3C)cc2n1Cc1ccc(-c2ccccc2C(=O)O)cc1 [telmisartan, 4′-[2-n-propyl-4-methyl-6-(1-methylbenzimidazol-2-yl)-benzimidazol-1-ylmethyl]-biphenyl-2-carboxylic acid]	particularly potent activation		61397	2859	58790	24498	760	545	703	818	837	691	818	802	no concentration-dependent displacement	did not result in any direct activation of the PPARgamma-LBD	MW (AlphaScreen signal) ([4]; test substance 1.00E−05 M): 847; MW (AlphaScreen signal) ([4]; test substance 1.00E−06 M): 677; MW (AlphaScreen signal) ([4]; test substance 1.00E−07 M): 606; MW (AlphaScreen signal) ([4]; test substance 3.00E−06 M): 720; MW (AlphaScreen signal) ([4]; test substance 3.00E−07 M): 644; MW (AlphaScreen signal) ([4]; test substance 3.00E−08 M): 642; MW (AlphaScreen signal) ([4]; test substance 5.00E−05 M): 1111
